Reference: the NIST ThermoML archive (doi:10.1016/j.tca.2016.03.002)

Experiment: refractive index (Na D-line) (dimensionless); xn = mol fraction of the nth substance listed
Details: 100 kPa, Liquid, Standard Abbe refractometry

NC1CCCCC1 [cyclohexylamine] + CO
refractive index
Details	293.15 K	298.15 K	303.15 K
x2 = 0	1.45934	1.45663	1.45325
x2 = 0.0702	1.45717	1.45462	1.45212
x2 = 0.1177	1.45561	1.45309	1.45064
x2 = 0.2006	1.45245	1.45014	1.44761
x2 = 0.3049	1.44774	1.44542	1.4431
x2 = 0.4041	1.44199	1.43954	1.43715
x2 = 0.4986	1.43478	1.43243	1.42999
x2 = 0.5392	1.43072	1.42852	1.42613
x2 = 0.597	1.42424	1.42256	1.42012
x2 = 0.6609	1.41597	1.41393	1.41198
x2 = 0.7024	1.40945	1.40787	1.40569
x2 = 0.746	–	–	1.39807
x2 = 0.7999	1.39047	1.38877	1.38677
x2 = 0.8535	–	1.3759	–
x2 = 0.8572	1.37655	1.37494	1.37247
x2 = 0.8985	1.36493	1.36313	–
x2 = 0.9032	1.36365	–	1.35944
x2 = 0.949	1.34836	1.34625	1.3444
